Source: US6500840B2, “Quinuclidine-substituted heteroaryl moieties for treatment of disease” (Pharmacia & Upjohn Company, priority 2000, dated 2002)
Where “and” joins values, the source holds several entries; their conditions need not be identical. Equal values may be shown once. Where a name gives a salt, the structure may show the parent alone.

Target: α7 nAChR (Homo sapiens, UniProt P36544)
Test: not given
Conditions: cited from earlier work

Chain of α7 nAChR (Homo sapiens, UniProt P36544) (P36544 23-502): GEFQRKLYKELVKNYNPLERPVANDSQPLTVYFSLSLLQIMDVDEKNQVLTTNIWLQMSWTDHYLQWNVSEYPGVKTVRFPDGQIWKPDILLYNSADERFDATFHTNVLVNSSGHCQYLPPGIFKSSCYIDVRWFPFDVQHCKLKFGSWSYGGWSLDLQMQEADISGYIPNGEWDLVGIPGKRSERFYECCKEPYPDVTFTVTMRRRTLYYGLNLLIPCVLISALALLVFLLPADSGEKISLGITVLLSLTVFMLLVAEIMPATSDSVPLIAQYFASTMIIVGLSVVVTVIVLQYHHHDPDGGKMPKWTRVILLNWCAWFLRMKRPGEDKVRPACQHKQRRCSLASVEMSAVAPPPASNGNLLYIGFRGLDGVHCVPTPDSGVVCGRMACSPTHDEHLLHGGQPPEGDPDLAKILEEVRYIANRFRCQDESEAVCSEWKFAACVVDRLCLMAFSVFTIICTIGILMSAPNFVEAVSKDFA

| SMILES | activity at the α7 nAChR |
| --- | --- |
| Cc1nccn1CC1CCc2c(c3ccccc3n2C)C1=O (centres unmarked) [Ondansetron] | little activity |

Target: T1, 5HT3R (Homo sapiens, UniProt P46098)
T1 sequence (P46098 24-478): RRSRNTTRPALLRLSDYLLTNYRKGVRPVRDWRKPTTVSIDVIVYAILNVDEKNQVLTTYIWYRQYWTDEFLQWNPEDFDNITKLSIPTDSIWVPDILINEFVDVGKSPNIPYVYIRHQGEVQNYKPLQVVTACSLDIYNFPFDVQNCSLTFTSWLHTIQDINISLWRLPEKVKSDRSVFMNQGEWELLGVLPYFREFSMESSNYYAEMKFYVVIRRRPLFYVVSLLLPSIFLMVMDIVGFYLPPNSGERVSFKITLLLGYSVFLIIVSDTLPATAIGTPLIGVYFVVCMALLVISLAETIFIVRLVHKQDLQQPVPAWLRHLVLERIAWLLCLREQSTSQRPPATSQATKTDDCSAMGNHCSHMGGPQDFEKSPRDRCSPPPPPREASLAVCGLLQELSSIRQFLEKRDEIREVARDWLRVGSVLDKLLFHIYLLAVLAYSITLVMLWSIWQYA
Test: not given
Conditions: cited from earlier work

| SMILES | activity at the 5HT3R |
| --- | --- |
| COc1ccc(/C=C2\CCCN=C2c2cccnc2)c(OC)c1 [GTS-21] | little activity |

Target: α7 nAChR (Rattus norvegicus, UniProt Q05941)
Sequence (Q05941 23-502): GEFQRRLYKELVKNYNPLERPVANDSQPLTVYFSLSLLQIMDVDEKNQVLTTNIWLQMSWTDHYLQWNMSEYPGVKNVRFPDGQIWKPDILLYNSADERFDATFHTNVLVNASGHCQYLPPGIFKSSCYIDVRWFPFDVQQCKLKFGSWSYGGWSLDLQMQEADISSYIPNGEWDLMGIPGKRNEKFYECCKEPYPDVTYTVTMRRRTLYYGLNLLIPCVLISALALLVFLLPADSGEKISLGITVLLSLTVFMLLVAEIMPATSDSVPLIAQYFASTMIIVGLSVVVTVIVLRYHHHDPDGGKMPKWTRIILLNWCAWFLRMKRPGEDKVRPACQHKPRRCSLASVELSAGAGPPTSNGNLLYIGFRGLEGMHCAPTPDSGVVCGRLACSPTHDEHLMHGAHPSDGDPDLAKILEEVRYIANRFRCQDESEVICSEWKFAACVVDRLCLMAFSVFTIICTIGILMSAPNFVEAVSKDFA
Test: [3H]-MLA competition binding assay, rat brain membranes
Conditions: not given

| SMILES | Ki [µM] |
| --- | --- |
| O=C(N[C@H]1CN2CCC1CC2)c1ccc(Sc2ccc(F)c(Cl)c2)s1 [Example 36, N-[(3R)-1-azabicyclo[2.2.2]oct-3-yl]-5-(3-chloro-4-fluorophenylsulfanyl)-thiophene-2-carboxamide] | 0.11 to 0.115 |

Same assay, conditions: Ki, inhibition of [3H]-MLA binding (3.0 to 4.0 nM), Sprague-Dawley rat whole brain minus cerebellum homogenate, 1 hour at 25° C

| SMILES | Ki |
| --- | --- |
| O=C(N[C@H]1CN2CCC1CC2)c1ccc(-c2cccc(Cl)c2)s1 [Example 3, N-[(3R)-1-azabicyclo[2.2.2]oct-3-yl]-5-(3-chlorophenyl)-thiophene-2-carboxamide hydrochloride] | 0.095 to 0.157 µM |
| O=C(N[C@H]1CN2CCC1CC2)c1ccc(Sc2cccc(Cl)c2)s1 [Example 35, N-[(3R)-1-azabicyclo[2.2.2]oct-3-yl]-5-(3-chlorophenyl-sulfanyl)-thiophene-2-carboxamide] | 0.03 to 0.05 µM |
| O=C(N[C@H]1CN2CCC1CC2)c1ncc(-c2cccc([N+](=O)[O-])c2)o1 [Example 81, N-[(3R)-1-azabicyclo[2.2.2]oct-3-yl]-5-(3-nitrophenyl)-1,3-oxazole carboxamide 4-methylbenzenesulfonate] | 0.055 to 0.175 µM |
| O=C(N[C@H]1CN2CCC1CC2)c1cnc(-c2cccc(F)c2)s1 [Example 53, N-[(3R)-1-azabicyclo[2.2.2]oct-3-yl]-2-(3-fluorophenyl)-1,3-thiazole-5-carboxamide 4-methylbenzenesulfonate] | 1.9 to 1.97 µM |
| O=C(N[C@H]1CN2CCC1CC2)c1ccc(-c2cccc([N+](=O)[O-])c2)s1 [Example 7, N-[(3R)-1-azabicyclo[2.2.2]oct-3-yl]-5-(3-nitrophenyl)-thiophene-2-carboxamide] | 0.025 to 0.03 µM |
| O=C(N[C@H]1CN2CCC1CC2)c1ccc(-c2ccccc2C(F)(F)F)o1 [Example 108, N-[(3R)-1-azabicyclo[2.2.2]oct-3-yl]-5-[2-(trifluoromethyl)-phenyl]-furan-2-carboxamide fumarate] | 0.415 to 0.56 µM |
| O=C(N[C@H]1CN2CCC1CC2)c1ncc(-c2ccccc2)o1 [Example 153, N-[(3R)-1-azabicyclo[2.2.2]oct-3-yl]-5-phenyl-1,3-oxazole-2-carboxamide 4-methylbenzenesulfonate] | 1.55 µM |
| Cc1ccc(-c2ccc(C(=O)N[C@H]3CN4CCC3CC4)o2)c([N+](=O)[O-])c1 [Example 130, N-[(3R)-1-azabicyclo[2.2.2]oct-3-yl]-5-(4-methyl-2-nitrophenyl)-furan-2-carboxamide hydrochloride] | 0.42 to 0.565 µM and 0.33 to 0.41 µM |
| COc1cccc(-c2ccc(C(=O)N[C@H]3CN4CCC3CC4)o2)c1 [Example 119, N-[(3R)-1-azabicyclo[2.2.2]oct-3-yl]-5-(3-methoxyphenyl)-furan-2-carboxamide 4-methylbenzenesulfonate] | 0.415 to 0.56 µM |
| O=C(N[C@H]1CN2CCC1CC2)c1ccc(-c2ccccc2)s1 [Example 1, N-[(3R)-1-Azabicyclo[2.2.2]oct-3-yl]-5-phenyl-thiophene-2-carboxamide Hydrochloride] | 0.013 to 0.033 µM |
| O=C(N[C@H]1CN2CCC1CC2)c1nc(-c2ccccc2)no1 [Example 154, N-[(3R)-1-azabicyclo[2.2.2]oct-3-yl]-3-phenyl-1,2,4-oxadiazole-5-carboxamide 4-methylbenzenesulfonate] | > 1 µM |
| O=C(N[C@H]1CN2CCC1CC2)c1ccc(-c2ccsc2)s1 [Example 5, N-[(3R)-1-azabicyclo[2.2.2]oct-3-yl]-2,3′-bithiophene-5-carboxamide hydrochloride] | 0.009 to 0.015 µM |
| O=C(N[C@H]1CN2CCC1CC2)c1ncc(-c2ccc(F)cc2)o1 [Example 85, N-[(3R)-1-azabicyclo[2.2.2]oct-3-yl]-5-(4-fluorophenyl)-1,3-oxazole-2-carboxamide 4-methylbenzenesulfonate] | 0.03 to 0.04 µM |
| O=C(N[C@H]1CN2CCC1CC2)c1ccc(-c2cc3ccccc3s2)o1 [Example 141, N-[(3R)-1-azabicyclo[2.2.2]oct-3-yl]-5-(1-benzothien-2-yl)-furan-2-carboxamide 4-methylbenzenesulfonate] | 0.26 to 0.275 µM |
| COc1cccc(-c2cnc(C(=O)N[C@H]3CN4CCC3CC4)o2)c1 [Example 80, N-[(3R)-1-azabicyclo[2.2.2]oct-3-yl]-5-(3-methoxyphenyl)-1,3-oxazole-2-carboxamide 4-methylbenzenesulfonate] | 0.05 to 0.06 µM |
| O=C(N[C@H]1CN2CCC1CC2)c1ccc([N+](=O)[O-])s1 [Example 16, N-[(3R)-1-Azabicyclo[2.2.2]oct-3-yl]-5-nitro-thiophene-2-carboxamide Hydrochloride] | 0.003 to 0.008 µM |
| O=C(N[C@H]1CN2CCC1CC2)c1cnc(-c2ccccc2O)s1 [Example 55, N-[(3R)-1-azabicyclo[2.2.2]oct-3-yl]-2-(2-hydroxyphenyl)-1,3-thiazole-5-carboxamide hydrochloride] | 0.06 to 0.07 µM |
| O=C(N[C@H]1CN2CCC1CC2)c1ccc(-c2cccc(F)c2)o1 [Example 114, N-[(3R)-1-azabicyclo[2.2.2]oct-3-yl]-5-(3-fluorophenyl)-furan-2-carboxamide 4-methylbenzenesulfonate] | 0.135 µM |
| Cc1cccc(-c2ccc(C(=O)N[C@H]3CN4CCC3CC4)o2)c1 [Example 136, N-[(3R)-1-azabicyclo[2.2.2]oct-3-yl]-5-(3-methylphenyl)-furan-2-carboxamide 4-methylbenzenesulfonate] | 0.015 to 0.02 µM |
| Nc1ccccc1-c1ccc(C(=O)N[C@H]2CN3CCC2CC3)o1 [Example 147, 5-(2-Aminophenyl)-N-[(3R)-1-azabicyclo[2.2.2]oct-3-yl]-furan-2-carboxamide bis(4-Methylbenzenesulfonate)] | 0.002 to 0.003 µM |
| O=C(N[C@H]1CN2CCC1CC2)c1ccc(-c2ccc(O)c(F)c2)s1 [Example 43, N-[(3R)-1-Azabicyclo[2.2.2]oct-3-yl]-5-(3-fluoro-4-hydroxyphenyl)-thiophene-2-carboxamide Hydrochloride] | 0.003 to 0.005 µM |
| COc1cccc(-c2cnc(C(=O)N[C@H]3CN4CCC3CC4)s2)c1 [Example 93, N-[(3R)-1-azabicyclo[2.2.2]oct-3-yl]-5-(3-methoxyphenyl)-1,3-thiazole-2-carboxamide 4-methylbenzenesulfonate] | 0.04 to 0.045 µM |
| O=C(N[C@H]1CN2CCC1CC2)c1ncc(-c2ccc(F)cc2)s1 [Example 95, N-[(3R)-1-azabicyclo[2.2.2]oct-3-yl]-5-(4-fluorophenyl)-1,3-thiazole-2-carboxamide 4-methylbenzenesulfonate] | 1.08 µM |
| COc1ccccc1-c1cnc(C(=O)N[C@H]2CN3CCC2CC3)s1 [Example 96, N-[(3R)-1-azabicyclo[2.2.2]oct-3-yl]-5-(2-methoxyphenyl)-1,3-thiazole-2-carboxamide 4-methylbenzenesulfonate] | 0.095 to 0.11 µM |
| O=C(N[C@H]1CN2CCC1CC2)c1ncc(-c2ccccc2[N+](=O)[O-])o1 [Example 83, N-[(3R)-1-azabicyclo[2.2.2]oct-3-yl]-5-(2-nitrophenyl)-1,3-oxazole-2-carboxamide 4-methylbenzenesulfonate] | 0.002 to 0.003 µM |
| O=C(N[C@H]1CN2CCC1CC2)c1ccc(-c2ccc(Cl)cc2)o1 [Example 106, N-[(3R)-1-azabicyclo[2.2.2]oct-3-yl]-5-(4-chlorophenyl)-furan-2-carboxamide fumarate] | 0.015 to 0.19 µM and 0.022 to 0.11 µM |
| O=C(N[C@H]1CN2CCC1CC2)c1ccc(-c2ccccc2)o1 [Example 103, N-[(3R)-1-Azabicyclo[2.2.2]oct-3-yl]-5-phenyl-furan-2-carboxamide 4-Methylbenzenesulfonate] | 0.017 to 0.05 µM |
| O=C(N[C@H]1CN2CCC1CC2)c1ccc(-c2cccc(Cl)c2)o1 [Example 105, N-[(3R)-1-azabicyclo[2.2.2]oct-3-yl]-5-(3-chlorophenyl)-furan-2-carboxamide toluene sulfonate] | 0.09 µM |
| O=C(N[C@H]1CN2CCC1CC2)c1ccc(-c2cccs2)s1 [Example 21] | 0.001 to 0.002 µM |
